The nature of series [1]: Solubility of crystalline Form A of Compound (I) in pH 1.2 SGF, shake-flask (Test J). It counts as physicochemical. The settings on record: simulated gastric fluid pH 1.2 (SGF), thermodynamic from solid, 37° C., 24 h agitation. As for the experimental part: Crystalline solubility in simulated gastric fluid pH 1.2 (SGF) was measured using a miniaturized shake-flask method (24 h agitation at 37° C.).
The samples were agitated at 37° C. for 24 hours in an Eppendorf shaker, agitation speed 1000 rpm. The samples were then centrifuged at 10000 RPM for 15 minutes, 37° C. Approximately 500 μL of the supernatant was withdrawn with automatic pipette to a new vial and centrifuged again for 15 min at 10000 rpm, 37° C. Then from the second centrifugation, samples were taken with automatic pipette to final dilution. pH was measured in the equilibrated remaining sample solution after the second centrifugation. XRPD was used to confirm that no form change had occurred.

The conditions of series [2]: cited from earlier work.
The test system of another series is Human Plasma Protein. Briefly: Human Plasma Protein Binding (Test B). It is filed as in vitro ADME. The settings on record: fraction unbound (fu). As for the experimental part:
Human Plasma Protein Binding (Test B)
The assay was conducted according to the Human Plasma Protein Binding Assay described in pages 167-170 of Wernevik, J. et al., “A Fully Integrated Assay Panel for Early Drug Metabolism and Pharmacokinetics Profiling”, Assay and Drug Development Technologies, 2020, 18(4), 157-179. Data are reported in Table 1 as fraction unbound (fu) (% free). Where the assay was run multiple times for the same compound, the arithmetic mean is reported.

A short description of series [3]: Solubility of amorphous Compound (I) in pH 1.2 SGF, turbidimetric method (Test I). It counts as physicochemical. To be noted: 37° C. As for the experimental part: 10 μL of the stock solution was rapidly injected into 990 μL of stabilizer solution containing 0.2% w/w PVPK30 and 0.2% w/w Pluronic F127 and 0.25 mM SDS aqueous solution under a few seconds of ultrasonic treatment to make a 1 mM amorphous nanosuspension. This formulation is further diluted to 0.25 mM with purified water.
The bulk concentration in equilibrium with amorphous particles is determined at 37° C. by a turbidimetric method (described in Lindfors et. al., Langmuir, 2006, 22(3), 911-916). Small volumes of drug suspension are successively added directly to a fluorescence cuvette containing 2000 μL simulated gastric fluid pH 1.2 (SGF) and are then mixed to give the desired concentrations. The light scattering intensity at 700 nm is recorded at a scattering angle of 90° as a function of total drug concentration. As a light scattering setup, a Perkin-Elmer LS 55 Luminescence Spectrometer is used, setting both the emission and excitation wavelengths to 700 nm. Slit excitation is set to 2.5 nm and slit emission is set to 5 nm. Particles are allowed to dissolve for at least 30 seconds prior to measurements starting. Data are then collected for 1 minute and a mean light scattering intensity is calculated. The solubility examination was performed within 45 min of the formation of the amorphous nanosuspension.
At low concentrations the particles dissolve, while at concentrations above the solubility, the particles remain suspended, leading to an almost linear increase in light scattering intensity as a function of total concentration.

Series [4] can be described thus: Solubility (pH 7.4) (Test F). It counts as physicochemical. The settings on record: pH 7.4, aqueous buffer. As to the method: Solubility (pH 7.4) (Test F)
The assay was conducted according to the Solubility Assay described in pages 164-167 of Wernevik, J. et al., “A Fully Integrated Assay Panel for Early Drug Metabolism and Pharmacokinetics Profiling”, Assay and Drug Development Technologies, 2020, 18(4), 157-179. Where the assay was run multiple times for the same compound, the arithmetic mean is reported.

Series [5] concerns the target T1, human RXFP1 (Homo sapiens, UniProt Q9HBX9).
T1 construct: expressed in transfected cells; host or cells: HEK293s cells, vector pIRESneo3
T1 sequence (Q9HBX9 1-757): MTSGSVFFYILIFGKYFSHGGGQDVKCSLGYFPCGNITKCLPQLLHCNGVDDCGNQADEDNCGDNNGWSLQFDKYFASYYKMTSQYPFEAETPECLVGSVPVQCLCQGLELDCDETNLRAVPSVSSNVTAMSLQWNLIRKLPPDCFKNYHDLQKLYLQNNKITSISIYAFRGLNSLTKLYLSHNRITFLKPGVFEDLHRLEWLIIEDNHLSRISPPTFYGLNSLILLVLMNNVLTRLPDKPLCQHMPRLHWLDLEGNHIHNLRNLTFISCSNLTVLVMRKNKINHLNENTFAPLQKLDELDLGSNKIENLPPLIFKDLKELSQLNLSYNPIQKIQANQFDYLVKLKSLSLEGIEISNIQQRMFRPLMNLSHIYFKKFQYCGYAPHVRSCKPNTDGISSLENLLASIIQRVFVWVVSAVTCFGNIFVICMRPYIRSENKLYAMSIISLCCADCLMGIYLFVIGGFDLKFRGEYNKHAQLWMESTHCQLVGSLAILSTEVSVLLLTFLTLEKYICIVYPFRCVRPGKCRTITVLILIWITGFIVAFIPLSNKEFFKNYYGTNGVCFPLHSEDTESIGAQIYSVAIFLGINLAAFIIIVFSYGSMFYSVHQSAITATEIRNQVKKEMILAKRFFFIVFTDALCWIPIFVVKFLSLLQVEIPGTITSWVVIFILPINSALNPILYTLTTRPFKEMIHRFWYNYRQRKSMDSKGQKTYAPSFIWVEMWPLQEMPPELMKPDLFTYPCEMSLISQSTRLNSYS
The series is described as follows: Human RXFP1 cGMP Production Assay (Test G). To be noted: HEK293s cells stably transfected with human RXFP1. It is filed as cell-based. As to the method: Human RXFP1 cGMP Production Assay (Test G)
To profile compounds for RXFP1 agonist activity with respect to cGMP production, the Green GENIe cGMP Assay (Montana Molecular; catalogue number D800G) was employed. […] Fluorescence is reduced when cGMP is bound to the biosensor.
(§1) Cells: HEK293s cells stably transfected with human RXFP1 in pIRESneo3 was employed.
• 2. […] Cells and transduction mastermix were mixed in proportions 30 μL cells and 20 μL mastermix for a single well. • 6. […] Plate was incubated in the dark at 37° C., 5% CO2 for 24 h.
• 8. Medium was removed from plates using a Bluewasher (BluCatBio). • 9. 20 μL assay buffer was added with a Multidrop Combi (ThermoFisher). • 10. Plate was incubated in the dark at room temperature for 30 min prior to assaying. • 11. Plates were assayed using a FLIPR Tetra (Molecular Devices): 10 μL compound diluted with assay buffer was added to each well by the FLIPR Tetra and measuring green fluorescence over time for up to 3 h.
After subtraction of background fluorescence (before addition of compounds), area under curve values from 0 to 90 min after compound addition was used for calculation of responses.

Series [6] has as its target T1, human RXFP1. The series is described as follows: Human RXFP1 Phospho-ERK Assay (Test H). It is filed as cell-based. To be noted: HEK293s cells stably transfected with human RXFP1; read-out: Test H phospo-ERK assay EC50.
From the text: as §1

Converted amounts (≈) assume the structure as drawn.

What is called solubility is the dissolved amount per volume that the medium holds. `COc1cc(F)c(O[C@H]2CC[C@@](C)(C(=O)O)CC2)cc1C(=O)N[C@@H]1[C@H]2CC[C@H](C2)[C@@H]1C(=O)NCC1(C)CCC1` [Form A of Compound (I), (1S,4s)-4-(2-Fluoro-4-methoxy-5-(((1S,2R,3S,4R)-3-(((1-methylcyclobutyl)methyl)carbamoyl)bicyclo[2.2.1]heptan-2-yl)carbamoyl)phenoxy)-1-methylcyclohexane-1-carboxylic acid]: in series [1], the solubility at 24 h is 0.4 µM (≈ 0.218 µg/mL).
In the case of serelaxin, the blood pressure drop in series [2] (approximately one third of the patients, intravenous) is above 40 mm Hg. Also, the “markers of cardiac, renal and hepatic damage and congestion” value in series [2] (hospitalized patients, continuous intravenous administration) is given as “improved”. The “clearance from the patients' circulation” value in series [2] (patients) was “rapid clearance”.
In the case of `COc1cc(F)c(O[C@H]2CC[C@@](C)(C(=O)O)CC2)cc1C(=O)N[C@@H]1[C@H]2CC[C@H](C2)[C@@H]1C(=O)NCC1(C)CCC1` [Compound (I), (1S,4s)-4-(2-fluoro-4-methoxy-5-(((1S,2R,3S,4R)-3-(((1-methylcyclobutyl)methyl)carbamoyl)bicyclo[2.2.1]heptan-2-yl)carbamoyl)phenoxy)-1-methylcyclohexane-1-carboxylic acid], in the series with Human Plasma Protein, the “Test B Human Plasma Protein Binding (% free)” value came out at 4.3 % free. Besides, the solubility is 8 µM (≈ 4.36 µg/mL) in series [3] (simulated gastric fluid pH 1.2 (SGF), simulated gastric fluid, kinetic from dmso stock, amorphous nanosuspension, extrapolation of light scattering to zero intensity) and above 500 µM in series [4]. Moreover, the “Mean light scattering intensity” value in series [3] (total concentration 1.2 uM) is 0.16 a.u; in series [3] (total concentration 2.5 uM), 0.28 a.u; in series [3] (total concentration 3.7 uM), 0.33 a.u; in series [3] (total concentration 6.1 uM), 0.33 a.u; in series [3] (total concentration 8.5 uM), 1.71 a.u; in series [3] (total concentration 10.8 uM), 4.94 a.u. Moreover, the “Mean light scattering intensity” value was found to be 8.19 a.u in series [3] (total concentration 13.0 uM), 11.77 a.u in series [3] (total concentration 15.3 uM), 15.33 a.u in series [3] (total concentration 17.4 uM) and 18.47 a.u in series [3] (total concentration 19.6 uM).
A word on the EC50: it is the concentration needed to bring the measured effect to its halfway point. In the case of relaxin2, the EC50 is 0.085 nM on human RXFP1 [5] and 0.038 nM on human RXFP1 [6].

(Values after patent US20260240798A1, “SOLID FORMS OF RXFP1 MODULATORS” (ASTRAZENECA AB, priority 2022, published 2026).)
